In patent publication US5698581A, “Substituted N-heteroaroylguanidines, a process for their preparation, their use as a medicament or diagnostic agent, and a medicament containing them” (Hoechst Aktiengesellschaft, priority 1994, dated 1997):

Biological target: T1, Na^+ /H^+ exchanger of rabbit erythrocytes (Oryctolagus cuniculus, UniProt P23791)
T1 construct: determine the Na^+ influx into the erythrocytes via Na^+ /H^+ exchange; endogenous in cells; host or cells: erythrocytes in whole blood of cholesterol-fed New Zealand White rabbits
Assay: Inhibition of the Na^+ /H^+ exchanger of rabbit erythrocytes (amiloride-sensitive sodium influx, flame photometry)
Assay type: cell-based, rabbit (New Zealand White)
Conditions: pH 7.4, 37° C., rabbits on 2% cholesterol diet
Source text: Inhibition of the Na^+ /H^+ exchanger of rabbit erythrocytes
New Zealand White rabbits (Ivanovas) were given a standard diet containing 2% cholesterol for six weeks in order to activate Na^+ /H^+ exchange and thus to be able to use flame photometry to determine the Na^+ influx into the erythrocytes via Na^+ /H^+ exchange. The blood was removed from the aural arteries and rendered incoagulable by the addition of 25 IU of potassium heparin. One part of each sample was used for the duplicate determination of the hematocrit by centrifugation. Aliquots of in each case 100 μl were employed for measuring the initial content of Na^+ in the erythrocytes.
In order to determine the amiloride-sensitive sodium influx, 100 μl of each blood sample were in each case incubated, at pH 7.4 and 37° C., in 5 ml of a hyperosmolar salt/sucrose medium (mmol/l: 140 NaCl, 3 KCl, 150 sucrose, 0.1 ouabain, 20 tris(hydroxymethyl)aminomethane). The erythrocytes were then washed three times with ice cold MgCl2 /ouabain solution (mmol/l: 112 MgCl2, 0.1 ouabain) and hemolyzed in 2.0 ml of distilled water. The intracellular content of sodium was determined by flame photometry.
The nett influx of Na^+ was calculated from the difference between the initial sodium values and the sodium content of the erythrocytes following incubation. The amiloride-inhibitable sodium Influx was given by the difference in the sodium content of the erythrocytes following incubation with and without 3×10^-4 mol/l amiloride. The same procedure was also used in the case of the compounds according to the invention.

T1 sequence (P23791 whole entry): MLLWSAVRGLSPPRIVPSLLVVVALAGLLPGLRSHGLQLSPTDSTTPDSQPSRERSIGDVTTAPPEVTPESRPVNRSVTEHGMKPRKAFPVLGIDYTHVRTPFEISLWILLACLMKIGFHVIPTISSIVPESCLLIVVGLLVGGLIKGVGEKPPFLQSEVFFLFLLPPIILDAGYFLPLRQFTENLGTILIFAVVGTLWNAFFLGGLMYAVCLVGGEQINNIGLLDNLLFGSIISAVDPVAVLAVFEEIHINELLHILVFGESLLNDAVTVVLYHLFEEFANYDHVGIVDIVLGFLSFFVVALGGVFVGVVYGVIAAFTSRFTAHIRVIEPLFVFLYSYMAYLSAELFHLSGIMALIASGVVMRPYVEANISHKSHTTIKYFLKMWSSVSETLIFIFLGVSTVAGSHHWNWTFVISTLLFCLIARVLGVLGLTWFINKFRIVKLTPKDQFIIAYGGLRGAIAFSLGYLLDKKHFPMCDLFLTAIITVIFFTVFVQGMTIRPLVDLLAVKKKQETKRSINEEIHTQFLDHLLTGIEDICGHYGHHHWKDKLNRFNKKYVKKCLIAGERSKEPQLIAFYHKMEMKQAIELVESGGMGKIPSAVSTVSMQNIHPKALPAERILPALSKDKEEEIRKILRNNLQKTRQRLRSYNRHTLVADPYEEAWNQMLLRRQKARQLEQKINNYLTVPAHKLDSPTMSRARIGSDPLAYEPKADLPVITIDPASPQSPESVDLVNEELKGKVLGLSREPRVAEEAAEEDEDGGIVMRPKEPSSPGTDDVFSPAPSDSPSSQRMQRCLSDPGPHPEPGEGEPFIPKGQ

SMILES	IC50 [nM]
Cn1c(C(=O)N=C(N)N)ccc1C(F)(C(F)(F)F)C(F)(F)F [Example 1, 5-Heptafluoroisopropyl-1-methylpyrrole-2-carboguanidide]	300
Cn1c(C(=O)N=C(N)N)ccc1C(F)(F)C(F)(F)C(F)(F)F [Example 2, 5-Heptafluoro-n-propyl-1-methylpyrrole-2-carboguanidide]	1000
Cn1c(C(=O)N=C(N)N)ccc1C(F)(F)C(F)(F)F [Example 3, 5-Pentafluoroethyl-1-methylpyrrole-2-carboguanidide]	300
Cn1c(C(=O)N=C(N)N)ccc1C(F)(F)F [Example 4, 5-Trifluoromethyl-1-methylpyrrole-2-carboguanidide]	200
Cn1cccc1C(=O)N=C(N)N [Example 5, 1-Methylpyrrole-2-carboguanidide]	5000
CC(C)c1sc(C(=O)N=C(N)N)cc1S(C)(=O)=O [Example 6, 5-Isopropyl-4-methylsulfonylthiophene-2-carboguanidide]	500
Cc1ccc(C(=O)N=C(N)N)s1 [Example 7, 5Methylthiophene-2-carboguanidide]	3000
NC(N)=NC(=O)c1cc(Br)c(Br)s1 [Example 8, 4,5-Dibromothiophene-2-carboguanidide]	500
